Read-outs that look alike come from different tables or passages of the source.
Experiments:
BV-2 cells = test: Cell viability (MTT analysis) of beta-amyloid treated BV-2 cells; type: cell-based; conditions: Mus musculus, BV-2 cells, average of three experiments
Procedure: Beta-amyloid (Aβ25-35, Sigma Chemical Co., St. Louis, Mo., USA) was diluted with aseptic desalted water and preservative solution (1 mM, GIBCO), and kept in aliquots at −70° C. To the treatment of beta-amyloid, beta-amyloid preservative solution was diluted to desired concentrations in a treatment medium (DMEM, GIBCO). The reagents were newly provided as a preservative solution (10 mM) under DMSO (dimethylsulfoxide), and diluted in treatment medium to desired concentrations.
BV-2 microglia cells (allotted from Pharmacology Division of Ajou University) were cultivated in DMEM (Dulbecco's Modified Eagle's Medium) supplemented with 5% fetal bovine serum (Invitrogen, Carlsbad, Calif., USA), sou/Ml penicillin (Invitrogen, Carlsbad, Calif., USA), and 50 μg/Ml streptomycin (Invitrogen, Carlsbad, Calif., USA) under the atmosphere condition with 5% CO2 and 95% air at 37° C. The medium was replaced once a day, the cells were plate-cultured in a density according to the scale of each experiment.
BV-2 cells were plate-cultured in 96-well plate at the density of 5×10^4, the cell viability was measured according to a conventional MTT analysis method and lactate dehydrogenase (LDH) analysis method. The MTT analysis depends on the metabolism ability of mitochondria of living cell, and reflexes intracellular redox states. The cultured cells were treated with MTT a solution (final concentration: 1 mg/Ml) for 4 hours. Deep blue formazan crystal generated in the original cells was dissolved in a lysis buffer, and then, the absorbance was detected at 595 nm with microplate reader. The LDH activity released from the culture medium was detected, which was evaluated as a cell death index. The culture medium was added to a reagent (test, Sigma Chemical Co, St. Louis, Mo., USA) containing sodium lactate, NADH and sodium pyruvate, and then, the absorbance reduction by NADH at 340 nm was measured. The result was calculated assuming that the LDH activity in homogenate solution of the non-treated control is 100%.
[…] For microscope analysis, BV-2 cells were used in 6-well plate at the density of 5×10^5 cells/well, for MTT analysis, BV-2 cells were used in 96-well plate at the density of 5×10^4 cells/well.
The obtained prevention effects of KHG25967 compound on toxicity induced by beta-amyloid in BV-2 cells were FIGS. 1A and 1b.
For MTT analysis, BV-2 cells were used on 96-well plate in the density of 5×10^4 cells/well. The quantitative analysis results (unit: %) for the cell viability obtained by MTT analysis were shown in Table 2, wherein the values are represented by the average of three experiments per each concentration.

[1] = compound 500 nM for 24 hours after 50 μM beta-amyloid for 2 hours, read-out: cell viability by MTT analysis

| SMILES | viability at 0.5 µM (BV-2 cells; BV-2, read-out: cell viability by MTT analysis, compound 500 nM for 24 hours after 50 μM beta-amyloid for 2 hours) [%] | melting point [°C] | viability at 0.5 µM (BV-2 cells; [1]) [%] |
| --- | --- | --- | --- |
| O=C([O-])CCCNC(=O)Nc1nc2ccccc2s1.[K+] [KHG26221, potassium 4-(3-benzo[d]thiazole-2-ylureido)butanoate] | 44 | 241 | – |
| O=C(NCCO)Nc1nc2ccccc2s1 [KHG26279, 1-(benzo[d]thiazole-2-yl)-3-(2-hydroxyethyl)urea] | – | 223 | 36 |
| Cn1c(NC(=O)NCC(=O)O)nc2ccccc21 [KHG26280, 2-(3-(1-methyl-1H-benzo[d]imidazole-2-yl)ureido)acetic acid] | – | 200 | 33 |
| CCOC(=O)CNC(=S)Nc1nc2ccccc2n1C [KHG26303, ethyl 2-(3-(1-methyl-1H-benzo[d]imidazole-2-yl)thioureido)acetate] | – | 185 | 48 |
| CCOC(=O)CNC(=S)Nc1nc2ccccc2s1 [KHG26304, ethyl 2-(3-benzo[d]thiazole-2-ylthioureido)acetate] | – | 204 | 41 |
| CCOC(=O)CNC(=S)Nc1nc2ccc(C)cc2s1 [KHG26305, ethyl 2-(3-(6-methylbenzo[d]thiazole-2-yl)thioureido)acetate] | – | 290.8 | 37 |
| CCOC(=O)CNC(=S)Nc1nc2c(C)cccc2s1 [KHG26306, ethyl 2-(3-(4-methylbenzo[d]thiazole-2-yl)thioureido)acetate] | – | 219 | 62 |
| CCOC(=O)CNC(=S)Nc1nc2cc(C)c(C)cc2s1 [KHG26307, ethyl 2-(3-(5,6-dimethylbenzo[d]thiazole-2-yl)thioureido)acetate] | – | 255 | 48 |
| CCOC(=O)CNC(=S)Nc1nc2ccc(OC)cc2s1 [KHG26308, ethyl 2-(3-(6-methoxybenzo[d]thiazole-2-yl)thioureido)acetate] | – | 324 | 44 |
| CCOC(=O)CNC(=S)Nc1nc2ccc(OCC)cc2s1 [KHG26309, ethyl 2-(3-(6-ethoxybenzo[d]thiazole-2-yl)thioureido)acetate] | – | 183 | 65 |
| CCOC(=O)CNC(=S)Nc1nc2ccc(F)cc2s1 [KHG26310, ethyl 2-(3-(6-fluorobenzo[d]thiazole-2-yl)thioureido)acetate] | – | 160 | 30 |
| CCOC(=O)CNC(=S)Nc1nc2ccc(Cl)cc2s1 [KHG26311, ethyl 2-(3-(6-chlorobenzo[d]thiazole-2-yl)thioureido)acetate] | – | 184 | 67 |
| CCOC(=O)CNC(=S)Nc1nc2c(Cl)cccc2s1 [KHG26312, ethyl 2-(3-(4-chlorobenzo[d]thiazole-2-yl)thioureido)acetate] | – | 198 | 55 |
| O=C(O)CNC(=S)Nc1nc2ccccc2s1 [KHG26316, 2-(3-benzo[d]thiazole-2-ylthioureido)acetic acid] | – | 200 | 57 |
| Cn1c(NC(=S)NCC(=O)O)nc2ccccc21 [KHG26334, 2-(3-(1-methyl-1H-benzo[d]imidazole-2-yl)thioureido)acetic acid] | – | 172 | 75 |
| Cc1cc2nc(NC(=S)NCC(=O)O)sc2cc1C [KHG26335, 2-(3-(5,6-dimethylbenzo[d]thiazole-2-yl)thioureido)acetic acid] | – | 212 | 81 |
| CCOc1ccc2nc(NC(=S)NCC(=O)O)sc2c1 [KHG26336, 2-(3-(6-ethoxybenzo[d]thiazole-2-yl)thioureido)acetic acid] | – | 200 | 67 |
| Cc1cccc2sc(NC(=S)NCC(=O)O)nc12 [KHG26340, 2-(3-(4-methylbenzo[d]thiazole-2-yl)thioureido)acetic acid] | – | 214 | 78 |
| O=C(O)CNC(=S)Nc1nc2ccc(Cl)cc2s1 [KHG26341, 2-(3-(6-chlorobenzo[d]thiazole-2-yl)thioureido)acetic acid] | – | 193 | 67 |
| COCCNC(=O)Nc1nc2ccccc2s1 [KHG26344, 1-(benzo[d]thiazole-2-yl)-3-(2-methoxyethyl)urea] | – | 257 | 58 |
| O=C(NCc1nn[nH]n1)Nc1nc2ccccc2s1 [KHG26345] | – | 249 | 63 |
